Test results: US20230212510A1, “METHODS FOR ORGANOIDS PRODUCTION” (CITY OF HOPE, priority 2020, published 2023)
“Also recorded” adds a separate entry of the source. Like-named read-outs stand apart in the source and are kept apart here.

What was measured:
Format in all cases: cell-based, human
[1] = test system: estrogen receptor; test: Attempted induction of estrogen receptor expression, immunofluorescence; conditions: 25 μM RepSox and 10 μM SB431542 together; drugs maintained, withdrawn, or cells mixed 1:10 with undrugged cells
[2] = test system: HMEC organoids in microcontainers; test: Interventions to alter organoid contraction kinetics (withdrawing media factors, adding matrix)
[3] = test system: HMEC organoids in microcontainers; test: Inhibitor treatment of contractile mammary organoids, contractions counted by time-lapse microscopy; conditions: for effect on contractions (FIG. 5H legend): 2 μM
Experimental: Contraction temporal analysis: Organoid contractions were quantified either by hand or by brightness change analysis, as indicated. For brightness change analysis, time-lapse movies were taken, and the time-derivative of the whole-field image brightness was calculated. Local maxima in the time-derivative were interpreted as contractions and spot-checked by eye.
Contractile function implies the presence of contractility-associated structural proteins. […] The association between contractility and ASMA expression was tested with inhibitor experiments. Contractile organoids were treated with either latrunculin B or jasplakinolide, inhibitors of cytoskeleton dynamics that either promote or inhibit actin polymerization, […]. […] Next, organoids were treated with ML-7, an inhibitor of the smooth muscle myosin light-chain kinase that interacts with ASMA.

[4] = test system: HMEC organoids in microcontainers; test: Prolactin treatment of organoids, luminal functional differentiation (morphology, Sudan Black)

Q: Which “estrogen receptor expression by immunofluorescence” value [1] does the source give for NC(=O)c1ccc(-c2nc(-c3ccc4c(c3)OCO4)c(-c3ccccn3)[nH]2)cc1 [SB431542] here?
A: not detected

Q: With CC[C@H](C)[C@@H]1NC(=O)[C@H](Cc2ccc(O)cc2)NC(=O)[C@@H](N)CSSC[C@@H](C(=O)N2CCC[C@H]2C(=O)N[C@@H](CC(C)C)C(=O)NCC(N)=O)NC(=O)[C@H](CC(N)=O)NC(=O)[C@H](CCC(N)=O)NC1=O [oxytocin] as the molecule, how does the “effect on contraction kinetics” value ([2]; withdrawn from the media) read?
A: no effect

Q: Which “effect on contractions (FIG. 5H legend)” value [3] does the source give for C/C1=C\[C@H](C)C[C@H](C)OC(=O)C[C@H](c2ccc(O)cc2)NC(=O)[C@@H](Cc2c(Br)[nH]c3ccccc23)N(C)C(=O)[C@H](C)NC(=O)[C@@H](C)C1 [jasplakinolide, Jasplakinolide] here?
A: prevented contractions

Q: How did the “effect on contraction kinetics” value ([2]; withdrawn from the media) turn out when CC(C)NCC(O)c1ccc(O)c(O)c1 (stereo not drawn) [isoproterenol] was run?
A: no effect

Q: For Cc1cccc(-c2[nH]ncc2-c2ccc3ncccc3n2)n1 [RepSox], which “estrogen receptor expression by immunofluorescence” value [1] is on record?
A: not detected

Q: Which “effect on contraction kinetics” value ([2]; added at 0 to 2 mg/mL) does the source give for “collagen I: matrix protein added to change the microenvironment” here?
A: no effect

Q: For C/C1=C/C(=O)O[C@@H]2C[C@@H](CC[C@H](C)/C=C\CC1)O[C@@](O)([C@@H]1CSC(=O)N1)C2 [latrunculin B, Latrunculin B], which “effect on contractions (FIG. 5H legend)” value [3] is on record?
A: prevented contractions

Q: Which results are given for O=S(=O)(c1cccc2c(I)cccc12)N1CCCNCC1 [ML-7]?
A: inhibition of contractions ([3]; 2 μM ML-7, FIG. 5I): Partial inhibition; effect on contractions (FIG. 5I legend) ([3]; n=59 organoids): prevented contractions

Q: cholera toxin was tested. Which “effect on contraction kinetics” value [2] did it give?
A: no effect

B1: prolactin: hormone treatment tested for evidence of lactation (protein, UniProt P01236 29-227, looked up)
Prolactin: LPICPGGAARCQVTLRDLFDRAVVLSHYIHNLSSEMFSEFDKRYTHGRGFITKAINSCHTSSLATPEDKEQAQQMNQKDFLSLIVSILRSWNEPLYHLVTEVRGMQEAPEAILSKAVEIEEQTKRLLEGMELIVSQVHPETKENEIYPVWSGLPSLQMADEESRLSAYYNLLHCLRRDSHKIDNYLKLLKCRIIHNNNC
Q: B1 was tested. Which “organoid morphology with prolactin treatment” value ([4]; presence or absence of prolactin, FIG. 6A) did it give?
A: no obvious differences; also recorded: no morphological changes

Q: What about the “sudanophilia (Sudan Black, marker of lipophilic secretions)” value ([4]; prolactin treatment, FIG. 6B) of the same molecule?
A: only evident in a single organoid
